row,SMILES,melting point
1,"Cc1cccc(-c2nc3cccnn3c2-c2ccnc(NC(=O)C(C)O)c2)c1 (centres unmarked) [Example 29, 2-Hydroxy-N-{4-[2-(3-methylphenyl)imidazo[1,2-b]pyridazin-3-yl]pyridin-2-yl}propanamide]",223 to 224 °C
2,"CCC(CC)NC(=O)Nc1cc(-c2c(-c3ccc(F)c(C)c3)nc3cccnn23)ccn1 [Example 51-4, N-(1-ethylpropyl)-N′-{4-[2-(4-fluoro-3-methylphenyl)imidazo[1,2-b]pyridazin-3-yl]pyridin-2-yl}urea]",187 to 188 °C
3,Cc1cc(-c2nc3cccnn3c2-c2ccnc(NC(=O)c3ccc(Cl)nc3)c2)ccc1F.Cl,250 to 251 °C
4,"Cc1cc(-c2nc3cccnn3c2-c2ccnc(NC(=O)NC3CC3)c2)ccc1F [Example 51-1, N-cyclopropyl-N′-{4-[2-(4-fluoro-3-methylphenyl)imidazo[1,2-b]pyridazin-3-yl]pyridin-2-yl}urea]",222 to 223 °C
5,"COc1ccc(C(=O)Nc2cc(-c3c(-c4cccc(C)c4)nc4ccc(Cl)nn34)ccn2)cc1 [Example 18, N-{4-[6-Chloro-2-(3-methylphenyl)imidazo[1,2-b]pyridazin-3-yl]pyridin-2-yl}-4-methoxybenzamide]",204 to 205 °C
6,"Cc1cc(-c2nc3cccnn3c2-c2ccnc(NC(=O)c3cncc(Cl)c3)c2)ccc1F [Example 42-28, 5-chloro-N-{4-[2-(4-fluoro-3-methylphenyl)imidazo[1,2-b]pyridazin-3-yl]pyridin-2-yl}nicotinamide]",252 to 254 °C
7,"COc1cc(F)ccc1C(=O)Nc1cc(-c2c(-c3ccc(F)c(C)c3)nc3cccnn23)ccn1 [Example 42-8, 4-fluoro-N-{4-[2-(4-fluoro-3-methylphenyl)imidazo[1,2-b]pyridazin-3-yl]pyridin-2-yl}-2-methoxybenzamide]",251 to 252 °C
8,"Cc1cc(-c2nc3cccnn3c2-c2ccnc(NC(=O)NCC(F)(F)F)c2)ccc1F [Example 51-2, N-{4-[2-(4-fluoro-3-methylphenyl)imidazo[1,2-b]pyridazin-3-yl]pyridin-2-yl}-N′-(2,2,2-trifluoroethyl)urea]",229 to 230 °C
9,"Cc1cccc(Nc2cc(-c3c(-c4cccc(C)c4)nc4cccnn34)ccn2)c1 [Example Compound 6-9, N-(3-methylphenyl)-4-[2-(3-methylphenyl)imidazo[1,2-b]pyridazin-3-yl]pyridin-2-amine]",195 to 196 °C
10,"Cc1cc(-c2nc3cccnn3c2-c2ccnc(NC(=O)NCC(C)C)c2)ccc1F [Example 51-3, N-{4-[2-(4-fluoro-3-methylphenyl)imidazo[1,2-b]pyridazin-3-yl]pyridin-2-yl}-N′-isobutylurea]",213 to 214 °C
11,COc1ccc(C(=O)Nc2cc(-c3c(-c4cccc(Cl)c4)nc4cccnn34)ccn2)cc1.Cl,236 to 238 °C
12,"Cc1cc(-c2nc3cccnn3c2-c2ccnc(NC(=O)Nc3cccnc3)c2)ccc1F [Example 51-7, N-{4-[2-(4-fluoro-3-methylphenyl)imidazo[1,2-b]pyridazin-3-yl]pyridin-2-yl}-N′-(pyridin-3-yl)urea]",233 to 234 °C
13,"Cc1cc(-c2nc3cccnn3c2-c2ccnc(NC(=O)c3cnccn3)c2)ccc1F [Example 42-34, N-{4-[2-(4-fluoro-3-methylphenyl)imidazo[1,2-b]pyridazin-3-yl]pyridin-2-yl}pyrazine-2-carboxamide]",229 to 230 °C
14,"O=C(Nc1cc(-c2c(-c3ccc(F)cc3)nc3cccnn23)ccn1)c1ccncc1 [Example 40-1, N-{4-[2-(4-fluorophenyl)imidazo[1,2-b]pyridazin-3-yl]pyridin-2-yl}isonicotinamide]",226 to 227 °C
15,"CCNC(=O)Nc1cc(-c2c(-c3ccc(F)c(C)c3)nc3cc(C(C)(C)C)c(Cl)nn23)ccn1 [Example 48-2, N-{4-[7-tert-butyl-6-chloro-2-(4-fluoro-3-methylphenyl)imidazo[1,2-b]pyridazin-3-yl]-2-pyridyl}-N′-ethylurea]",246 to 247 °C
16,Cc1cc(-c2nc3cccnn3c2-c2ccnc(NC(=O)c3ccc(Cl)cc3)c2)ccc1F.Cl,264 to 266 °C
17,"Cc1cccc(-c2nc3ccc(S(C)(=O)=O)nn3c2-c2ccnc(NC3CCCCC3)c2)c1 [Example 11, N-Cyclohexyl-4-[2-(3-methylphenyl)-6-(methylsulfonyl)imidazo[1,2-b]pyridazin-3-yl]pyridin-2-amine]",196 to 197 °C
18,"Cc1cccc(-c2nc3cccnn3c2-c2ccnc(NC3CCCCC3)c2)c1 [Example Compound 6-1, N-cyclohexyl-4-[2-(3-methylphenyl)imidazo[1,2-b]pyridazin-3-yl]pyridin-2-amine]",169 to 170 °C
19,"Cc1cc(-c2nc3cccnn3c2-c2ccnc(NC(=O)c3ccc(Cl)nc3)c2)ccc1F [Example 42-24, 6-chloro-N-{4-[2-(4-fluoro-3-methylphenyl)imidazo[1,2-b]pyridazin-3-yl]pyridin-2-yl}nicotinamide]",225 to 226 °C
20,"Cc1cc(-c2nc3cccnn3c2-c2ccnc(NC(=O)NCCS(C)(=O)=O)c2)ccc1F [Example 51-5, N-{4-[2-(4-fluoro-3-methylphenyl)imidazo[1,2-b]pyridazin-3-yl]pyridin-2-yl}-N′-[2-(methylsulfonyl)ethyl]urea]",204 to 205 °C
21,"Cc1cccc(-c2nc3ccc(Cl)nn3c2-c2ccnc(Nc3ccccc3C)c2)c1 [Example Compound 3-2, 4-[6-chloro-2-(3-methylphenyl)imidazo[1,2-b]pyridazin-3-yl]-N-(2-methylphenyl)pyridin-2-amine]",191 to 192 °C
22,"Cc1cccc(-c2nc3cccnn3c2-c2ccnc(NCC3CCCCC3)c2)c1 [Example 38, N-(Cyclohexylmethyl)-4-[2-(3-methylphenyl)imidazo[1,2-b]pyridazin-3-yl]pyridin-2-amine]",128 to 130 °C
23,"CSc1ccc2nc(-c3ccc(F)c(C)c3)c(-c3ccnc(NC(=O)NC(C)C)c3)n2n1 [Example 54, N-{4-[2-(4-Fluoro-3-methylphenyl)-6-(methylthio)imidazo[1,2-b]pyridazin-3-yl]pyridin-2-yl}-N′-isopropylurea]",241 to 242 °C
24,"Cc1cc(-c2nc3cccnn3c2-c2ccnc(NC(=O)NC3CCC(O)CC3)c2)ccc1F (centres unmarked) [Example 51-10, N-{4-[2-(4-fluoro-3-methylphenyl)imidazo[1,2-b]pyridazin-3-yl]pyridin-2-yl}-N′-(4-hydroxycyclohexyl)urea]",218 to 220 °C
25,"CCC(C)NC(=O)Nc1cc(-c2c(-c3ccc(F)c(C)c3)nc3cccnn23)ccn1 (centres unmarked) [Example 47-3, N-(sec-butyl)-N′-{4-[2-(4-fluoro-3-methylphenyl)imidazo[1,2-b]pyridazin-3-yl]pyridin-2-yl}urea]",196 to 197 °C

# The remaining lines, values ahead:
row,melting point,SMILES
1,177 to 178 °C,"COc1ccc(C(=O)Nc2cc(-c3c(-c4cccc(C)c4)nc4cccnn34)ccn2)cc1 [Example compound 20-2, 4-methoxy-N-{4-[2-(3-methylphenyl)imidazo[1,2-b]pyridazin-3-yl]pyridin-2-yl}benzamide]"
2,227 to 228 °C,"CC(=O)Nc1cc(-c2c(-c3cccc(C)c3)nc3cccnn23)ccn1 [Example Compound 20-7, N-{4-[2-(3-methylphenyl)imidazo[1,2-b]pyridazin-3-yl]pyridin-2-yl}acetamide]"
3,212 to 213 °C,"Cc1cc(-c2nc3c(C)ccnn3c2-c2ccnc(N)c2)ccc1F [Example Compound 37-2, 4-[2-(4-fluoro-3-methylphenyl)-8-methylimidazo[1,2-b]pyridazin-3-yl]-2-pyridylamine]"
4,232 to 233 °C,"Cc1cc(-c2nc3cc(C(C)(C)C)c(Cl)nn3c2-c2ccnc(N)c2)ccc1F [Example Compound 36-2, 4-[7-tert-butyl-6-chloro-2-(4-fluoro-3-methylphenyl)imidazo[1,2-b]pyridazin-3-yl]-2-pyridylamine]"
5,154 to 155 °C,"Cc1cccc(-c2nc3cccnn3c2-c2ccnc(N[C@@H](C)c3ccccc3)c2)c1 [Example Compound 6-21, 4-[2-(3-methylphenyl)imidazo[1,2-b]pyridazin-3-yl]-N-[(1S)-1-phenylethyl]pyridin-2-amine]"
6,128 to 129 °C,"CCCNc1cc(-c2c(-c3cccc(C)c3)nc3cccnn23)ccn1 [Example Compound 6-25, 4-[2-(3-methylphenyl)imidazo[1,2-b]pyridazin-3-yl]-N-propylpyridin-2-amine]"
7,151 to 153 °C,"CCNc1cc(-c2c(-c3cccc(C)c3)nc3cccnn23)ccn1 [Example Compound 6-26, N-ethyl-4-[2-(3-methylphenyl)imidazo[1,2-b]pyridazin-3-yl]pyridin-2-amine]"
8,229 to 230 °C,"Cc1cc(-c2nc3cccnn3c2-c2ccnc(NC(=O)NC3CCCCC3)c2)ccc1F [Example Compound 28-6, N-cyclohexyl-N′-{4-[2-(4-fluoro-3-methylphenyl)imidazo[1,2-b]pyridazin-3-yl]pyridin-2-yl}urea]"
9,222 to 223 °C,"CC(C)NC(=O)Nc1cc(-c2c(-c3ccc(F)cc3)nc3cccnn23)ccn1 [Example Compound 28-10, N-{4-[2-(4-fluorophenyl)imidazo[1,2-b]pyridazin-3-yl]pyridin-2-yl}-N′-isopropylurea]"
10,166 to 167 °C,"CCN(CC)C(=O)Nc1cc(-c2c(-c3cccc(C)c3)nc3cccnn23)ccn1 [Example Compound 32-1, N,N-diethyl-N′-{4-[2-(3-methylphenyl)imidazo[1,2-b]pyridazin-3-yl]pyridin-2-yl}urea]"
11,252 to 253 °C,"Nc1cc(-c2c(-c3ccc(Cl)cc3)nc3cccnn23)ccn1 [Example Compound 16-2, 4-[2-(4-chlorophenyl)imidazo[1,2-b]pyridazin-3-yl]pyridin-2-amine]"
12,202 to 203 °C,"Cc1cccc(NC(=O)Nc2cc(-c3c(-c4cccc(C)c4)nc4cccnn34)ccn2)c1 [Example Compound 27-2, N-(3-methylphenyl)-N′-{4-[2-(3-methylphenyl)imidazo[1,2-b]pyridazin-3-yl]pyridin-2-yl}urea]"
13,128 to 129 °C,"CCCCNc1cc(-c2c(-c3cccc(C)c3)nc3cccnn23)ccn1 [Example Compound 6-24, N-butyl-4-[2-(3-methylphenyl)imidazo[1,2-b]pyridazin-3-yl]pyridin-2-amine]"

# Reference: patent US20080167314A1, “Condensed Imidazole Compound And Use Thereof” (priority 2004, published 2008)
